Laboratory results: PubChem BioAssay (NCI)
“And” between values parts separate entries of the source, which are not always exact repeats. Equal entries are not always repeated.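 Step 1: Grow cells in 96-well plates. Step 2: Expose to compound for 48 hours at 5 concentrations. Step 3: Interpolate endpoints linearly; if unreached, use highest concentration. The concentration for 50% growth inhibition is given as GI50. The concentration for full growth arrest is given as TGI.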

Assays:
Experiment in all cases: DTP human tumour cell line panel, 48 h
KM12 colon = test system: KM12 colon
NCI-H226 lung = test system: NCI-H226 lung
OVCAR-4 ovarian = test system: OVCAR-4 ovarian
UACC-62 melanoma = test system: UACC-62 melanoma
K-562 leukemia = test system: K-562 leukemia
PC-3 prostate = test system: PC-3 prostate
SK-OV-3 ovarian = test system: SK-OV-3 ovarian
TK-10 renal = test system: TK-10 renal
CAKI-1 renal = test system: CAKI-1 renal
RXF 393 renal = test system: RXF 393 renal

| SMILES | TGI (KM12 colon) | TGI (NCI-H226 lung) | TGI (OVCAR-4 ovarian) | TGI (UACC-62 melanoma) | TGI (K-562 leukemia) | TGI (PC-3 prostate) | TGI (SK-OV-3 ovarian) | TGI (TK-10 renal) | TGI (CAKI-1 renal) | TGI (RXF 393 renal) | GI50 (KM12 colon) | GI50 (NCI-H226 lung) | GI50 (OVCAR-4 ovarian) | GI50 (UACC-62 melanoma) | GI50 (K-562 leukemia) | GI50 (PC-3 prostate) | GI50 (SK-OV-3 ovarian) | GI50 (TK-10 renal) | GI50 (CAKI-1 renal) | GI50 (RXF 393 renal) |
| --- | --- | --- | --- | --- | --- | --- | --- | --- | --- | --- | --- | --- | --- | --- | --- | --- | --- | --- | --- | --- |
| c1cc2c(c(NC3=NCCN3)c1)CCCC2 | > 100 µM | > 100 µM | > 100 µM | > 100 µM | > 100 µM | > 100 µM | > 100 µM | > 100 µM | > 100 µM | > 100 µM |  |  |  |  |  |  |  |  |  |  |
| O=C1NC(=O)C(c2c[nH]c3ccccc23)=C1c1ccccc1 | > 25 µM | > 25 µM | > 25 µM | > 25 µM | > 25 µM | > 25 µM | > 25 µM | > 25 µM | > 25 µM | > 25 µM | > 25 µM | > 20.1 µM | > 25 µM | > 25 µM | > 25 µM | > 25 µM | > 25 µM | > 25 µM | > 25 µM | > 25 µM |
| CC1COCCN1CC#CCOC(=O)c1cc2ccccc2oc1=O (configuration not stated) | > 100 µM | > 100 µM | > 100 µM | > 100 µM | > 100 µM | > 100 µM | > 100 µM | > 100 µM | > 100 µM | > 100 µM | > 100 µM | > 100 µM | > 100 µM | > 100 µM | > 100 µM | > 100 µM | > 100 µM | > 100 µM | > 100 µM | > 100 µM |
| CNc1ncc2cc(-c3cc(NC(=O)NCCC(C)(C)C)c(F)cc3C)c(C)nc2n1 | > 100 µM | > 100 µM | > 100 µM | 0.0881 µM and 0.121 µM | > 100 µM | > 100 µM | 4.36 µM and 5.87 µM | 5.07 µM and 6.79 µM | > 100 µM | 5.99 µM and > 6.39 µM | 0.405 µM and 0.448 µM | 1.11 µM and 0.298 µM | 0.543 µM and 0.785 µM | < 0.01 µM and 0.00585 µM | 0.227 µM and 0.33 µM | 17.4 µM and 6.93 µM | 0.359 µM and 0.431 µM | 0.241 µM and 0.243 µM | 0.437 µM and 0.2 µM | 1.01 µM and 0.504 µM |
| N=C1/C(=C2\Nc3ccccc3S2)CC(=O)N1c1ccc(SC(F)F)cc1 | > 100 µM | > 100 µM | 52.2 µM | > 100 µM | > 100 µM | 93.5 µM | > 100 µM | > 100 µM | > 100 µM | 25.7 µM | 8.13 µM | 60.9 µM | 0.969 µM | 24 µM | 1.65 µM | 3.55 µM | 8.6 µM | 22 µM | 8.7 µM | 2.81 µM |
| OCc1ccc(N(Cc2ccc(F)cc2)CC2CCC2)cc1Cl | 27.8 µM | 0.525 µM | 14.6 µM | 8.34 µM | 22.7 µM | 24.8 µM | 27.9 µM | 3.65 µM | 8.51 µM | 18 µM | 14 µM | 0.178 µM | 2.18 µM | 1.57 µM | 6.4 µM | 11.8 µM | 14.8 µM | 0.705 µM | 2.04 µM | 6.07 µM |
| COc1ccc2nc3cc(Cl)ccc3c(Nc3cc(C(C)C)c(O)cc3C)c2c1 | 4.67 µM | 6.64 µM | 9.46 µM | 3.5 µM | > 100 µM | 4.79 µM | 6.88 µM | 6.65 µM | 5.42 µM | 2.9 µM | 2.2 µM | 2.23 µM | 2.5 µM | 1.72 µM | 2.02 µM | 1.7 µM | 2.39 µM | 1.75 µM | 2.1 µM | 1.28 µM |
| COC1=CC2CCN3Cc4cc5c(cc4C(C1O)C23)OCC5 (configuration not stated) | 30.3 µM | 7.6 µM | 22.8 µM | 11.1 µM | > 100 µM | > 47 µM | > 100 µM | 41.9 µM | 8.36 µM | 16.7 µM | 3.06 µM | 1.72 µM | 1.33 µM | 2.05 µM | 3.51 µM | 2.67 µM | 1.84 µM | 5.53 µM | 2.49 µM | 2.74 µM |
| COc1c2ccccc2c(O)c2c(=O)ccn(C)c12 | 38.3 µM | > 49.9 µM | > 92 µM | 7.5 µM | > 100 µM | 57.6 µM | > 100 µM | 55.8 µM | 52.9 µM | 20.3 µM | 4.97 µM | 7.49 µM | 30.3 µM | 2.75 µM | 7.5 µM | 15 µM | 75.1 µM | 11.3 µM | 8.59 µM | 5.27 µM |
| Fc1ccc(C2C3CCOc4c(ccc5ccccc45)C3=NN2c2ccccc2)cc1 (configuration not stated) | > 100 µM | 97 µM | > 100 µM | > 100 µM | > 100 µM | > 100 µM | > 100 µM | > 100 µM | > 100 µM | > 100 µM | > 100 µM | 34.2 µM | > 100 µM | > 66.2 µM | 49 µM | > 54.9 µM | > 100 µM | > 65 µM | 64.2 µM | > 63.6 µM |
| CCc1ccc([O-])c(C=NCCCN(C)CCCN=Cc2cc(C)ccc2[O-])c1.[Co+3].[N-]=[N+]=[N-] | 50 µg/mL and > 150 µg/mL | 50 µg/mL and 88.6 µg/mL | 50 µg/mL and > 150 µg/mL | 50 µg/mL and > 150 µg/mL |  | 50 µg/mL | 50 µg/mL and 85.9 µg/mL | 50 µg/mL | 50 µg/mL and > 150 µg/mL | 35.5 µg/mL and 46 µg/mL | 50 µg/mL and > 150 µg/mL | 50 µg/mL and 32.5 µg/mL | 50 µg/mL and 90.8 µg/mL | 50 µg/mL and 78.2 µg/mL | 5 µg/mL and 74 µg/mL | 29.5 µg/mL | 12.9 µg/mL and 37.3 µg/mL | 29 µg/mL | 50 µg/mL and 66.9 µg/mL | 5.76 µg/mL and 20.4 µg/mL |
| O=C1NC(=N[C@H](CO)c2ccccc2)S/C1=C\c1ccc2ncccc2c1 | > 21.4 µM | 16.5 µM | > 25 µM | 24.7 µM | > 25 µM | > 25 µM | 17.6 µM | 20 µM | > 16 µM | 18.1 µM | 5.77 µM | 4.8 µM | 2.67 µM | 5.74 µM | 4 µM | 4.07 µM | 5.11 µM | 1.95 µM | 3.75 µM | 4.04 µM |
| CN1CCN(c2ccc(Nc3ncc4cc5n(c4n3)C3(CCCCC3)CNC5=O)nc2)CC1 | 21.9 µM | 11.3 µM | 15.4 µM | 19.8 µM | 18.4 µM | 28.9 µM | 68.2 µM |  | 14.3 µM | 3.71 µM | 1.32 µM | 1.27 µM | 2.86 µM | 2.94 µM | 2.17 µM | 0.627 µM | 11.4 µM |  | 0.397 µM | 1.32 µM |
